Results as given in article PMC12446476 (Nature Communications, 2025).

Test system: N. gonorrhoeae
Assay: N. gonorrhoeae murine vaginal infection model, efficacy
Format: in vivo, mouse
Protocol: The N. gonorrhoeae female mouse vaginal model[45] was performed in accordance with the Guide for Care and Use of Laboratory Animals[75]. Animal rooms were maintained at a temperature range of 20–24 °C and humidity between 30% and 70%, with 12 h light/dark cycles. Ovariectomized BALB/c female mice (5–6 weeks, BioLASCO Taiwan Co., Ltd.) were treated with estradiol (0.23 mg/mouse) two days before infection and on the day of infection. Ovariectomized mice were used to avoid staging mice before treating them with estradiol. Beginning two days prior to infection and maintained until the end of the study, animals were treated twice daily with streptomycin (1.2 mg/mouse) and vancomycin (0.6 mg/mouse) each via intraperitoneal (IP) injection and received trimethoprim sulfate in the drinking water (0.4 mg/mL) to control vaginal microflora. Animals were anesthetised with pentobarbital (80 mg/kg), the vagina was rinsed with 50 mM HEPES (pH 7.4), and then inoculated with N. gonorrhoeae in pre-warmed PBS (0.02 mL/mouse containing ~1 × 10^5 CFU).
Control groups received either a single IP injection of ceftriaxone or 5% dextrose (vehicle) twice daily. Animals were sacrificed via CO2 asphyxiation at either 2 h (baseline), 26 and/or 50 h post-infection. Vaginal lavage was performed twice with 200 µL GC broth containing 0.05% saponin to recover bacteria. Bacterial burden in the lavage fluids was determined by performing 10-fold serial dilutions and plating on chocolate agar plates. Four strains were assessed using the model; ATCC 700825 is naturally streptomycin-resistant, whereas AR Bank0179-15, AR Bank0181-17 and WHO X-07 are derivatives of AR Bank0179, AR Bank0181 and WHO X, respectively, that were engineered for streptomycin resistance for use in the model.

Cc1c(CN(C)C(=O)/C=C/c2cnc3c(c2)N[C@H](C)[C@H](O)C(=O)N3)oc2ccccc12 [Debio 1453]
Mean Diff. 0h vs. treatment, log10 CFU (AR Bank0179-15, 20 µg/mL Debio 1453, 24h): -1.082 | Mean Diff. 0h vs. treatment, log10 CFU (AR Bank0179-15, 20 µg/mL Debio 1453, 48h): -1.16 | Mean Diff. 0h vs. treatment, log10 CFU (AR Bank0179-15, 40 µg/mL Debio 1453, 24h): -0.242 | Mean Diff. 0h vs. treatment, log10 CFU (AR Bank0179-15, 40 µg/mL Debio 1453, 48h): 1.58 | Mean Diff. 0h vs. treatment, log10 CFU (AR Bank0179-15, 60 µg/mL Debio 1453, 24h): 1.644 | Mean Diff. 0h vs. treatment, log10 CFU (AR Bank0179-15, 60 µg/mL Debio 1453, 48h): 2.864 | Mean Diff. 0h vs. treatment, log10 CFU (AR Bank0179-15, 80 µg/mL Debio 1453, 24h): 1.958 | Mean Diff. 0h vs. treatment, log10 CFU (AR Bank0179-15, 80 µg/mL Debio 1453, 48h): 2.964 | Mean Diff. 0h vs. treatment, log10 CFU (AR Bank0179-15, 24h): 3.186 | Mean Diff. 0h vs. treatment, log10 CFU (AR Bank0179-15, 48h): 3.186 | Mean Diff. 0h vs. treatment, log10 CFU (AR Bank0181-17, 40 µg/mL Debio 1453, 24h): -1.694 | Mean Diff. 0h vs. treatment, log10 CFU (AR Bank0181-17, 40 µg/mL Debio 1453, 48h): -0.796 | Mean Diff. 0h vs. treatment, log10 CFU (AR Bank0181-17, 60 µg/mL Debio 1453, 24h): -1.094 | Mean Diff. 0h vs. treatment, log10 CFU (AR Bank0181-17, 60 µg/mL Debio 1453, 48h): -0.998 | Mean Diff. 0h vs. treatment, log10 CFU (AR Bank0181-17, 80 µg/mL Debio 1453, 24h): -0.986 | Mean Diff. 0h vs. treatment, log10 CFU (AR Bank0181-17, 80 µg/mL Debio 1453, 48h): -0.852 | Mean Diff. 0h vs. treatment, log10 CFU (AR Bank0181-17, 320 µg/mL Debio 1453, 24h): 3.42 | Mean Diff. 0h vs. treatment, log10 CFU (AR Bank0181-17, 320 µg/mL Debio 1453, 48h): 3.56 | Mean Diff. 0h vs. treatment, log10 CFU (AR Bank0181-17, 24h): 0.842 | Mean Diff. 0h vs. treatment, log10 CFU (AR Bank0181-17, 48h): 1.134 | Mean Diff. 0h vs. treatment, log10 CFU (ATCC 700825, 20 µg/mL Debio 1453, 24h): -0.874 | Mean Diff. 0h vs. treatment, log10 CFU (ATCC 700825, 20 µg/mL Debio 1453, 48h): -1.386 | Mean Diff. 0h vs. treatment, log10 CFU (ATCC 700825, 40 µg/mL Debio 1453, 24h): -0.322 | Mean Diff. 0h vs. treatment, log10 CFU (ATCC 700825, 40 µg/mL Debio 1453, 48h): -0.946 | Mean Diff. 0h vs. treatment, log10 CFU (ATCC 700825, 60 µg/mL Debio 1453, 24h): 1.296 | Mean Diff. 0h vs. treatment, log10 CFU (ATCC 700825, 60 µg/mL Debio 1453, 48h): 2.468 | Mean Diff. 0h vs. treatment, log10 CFU (ATCC 700825, 80 µg/mL Debio 1453, 24h): 2.796 | Mean Diff. 0h vs. treatment, log10 CFU (ATCC 700825, 80 µg/mL Debio 1453, 48h): 3.082 | Mean Diff. 0h vs. treatment, log10 CFU (ATCC 700825, 24h): 2.942 | Mean Diff. 0h vs. treatment, log10 CFU (ATCC 700825, 48h): 3.082 | Mean Diff. 0h vs. treatment, log10 CFU (WHO X-07, 40 µg/mL Debio 1453, 24h): -1.944 | Mean Diff. 0h vs. treatment, log10 CFU (WHO X-07, 40 µg/mL Debio 1453, 48h): -2.102 | Mean Diff. 0h vs. treatment, log10 CFU (WHO X-07, 60 µg/mL Debio 1453, 24h): -1.81 | Mean Diff. 0h vs. treatment, log10 CFU (WHO X-07, 60 µg/mL Debio 1453, 48h): -1.666 | Mean Diff. 0h vs. treatment, log10 CFU (WHO X-07, 80 µg/mL Debio 1453, 24h): -1.492 | Mean Diff. 0h vs. treatment, log10 CFU (WHO X-07, 80 µg/mL Debio 1453, 48h): -1.246 | Mean Diff. 0h vs. treatment, log10 CFU (WHO X-07, 320 µg/mL Debio 1453, 24h): 3.01 | Mean Diff. 0h vs. treatment, log10 CFU (WHO X-07, 320 µg/mL Debio 1453, 48h): 3.322 | Mean Diff. 0h vs. treatment, log10 CFU (WHO X-07, 24h): 2.532 | Mean Diff. 0h vs. treatment, log10 CFU (WHO X-07, 48h): 3.114 | reduction compared to the start of treatment (0 h) (each of four strains, dosed as Debio 1453 P, limit of detection by 48 h for at least one dose level): ~ 3 log10CFU/mL
